According to US9296698B2, “Amino heteroaryl compounds as beta-secretase modulators and methods of use” (Amgen Inc., priority 2009, dated 2016):
Read-outs that look alike come from different tables or passages of the source.

Columns and labels:
[1] = target: BACE 1 (Beta Secretase enzyme) (Homo sapiens, UniProt P56817); assay: In vitro enzymatic BACE FRET assay; type: biochemical
Summary of the method: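 BACE activity read by FRET: peptide substrate (50 nM) carrying fluorophore and quencher across the cleavage site, incubated one hour in 0.05 M acetate pH 4.2, 10% DMSO final, 100 uM genapol. Tris addition raises pH to neutrality to stop the reaction before fluorescence is read.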

[2] = tested on: Aβ40 in conditioned medium of cells stably expressing Amyloid Precursor Protein (APP); assay: In vitro BACE cell-based assay (HEK cell assay), Aβ40 sandwich ELISA
Summary of the method: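 Cells stably expressing APP received 10-point compound dilutions (top 100 μM or 10 μM; 0.1% DMSO) for 24 h. Secreted Aβ40 was quantified by sandwich ELISA (pAb40 capture, biotinylated 6E10 detection, europium time-resolved fluorescence). IC50 was derived from percent inhibition versus concentration.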

[3] = IC50 range symbols, Table 1, read-out: BACE 1 FRET assay
[4] = Homo sapiens, HEK293, 24 h, IC50 range symbols, Table 1, Aβ40, 24 h incubation, read-out: HEK cell assay
[5] = IC50 range symbols, Table 1, Aβ40, 24 h incubation, read-out: HEK cell assay

Chain of BACE 1 (Beta Secretase enzyme) (P56817 46-501, species assumed): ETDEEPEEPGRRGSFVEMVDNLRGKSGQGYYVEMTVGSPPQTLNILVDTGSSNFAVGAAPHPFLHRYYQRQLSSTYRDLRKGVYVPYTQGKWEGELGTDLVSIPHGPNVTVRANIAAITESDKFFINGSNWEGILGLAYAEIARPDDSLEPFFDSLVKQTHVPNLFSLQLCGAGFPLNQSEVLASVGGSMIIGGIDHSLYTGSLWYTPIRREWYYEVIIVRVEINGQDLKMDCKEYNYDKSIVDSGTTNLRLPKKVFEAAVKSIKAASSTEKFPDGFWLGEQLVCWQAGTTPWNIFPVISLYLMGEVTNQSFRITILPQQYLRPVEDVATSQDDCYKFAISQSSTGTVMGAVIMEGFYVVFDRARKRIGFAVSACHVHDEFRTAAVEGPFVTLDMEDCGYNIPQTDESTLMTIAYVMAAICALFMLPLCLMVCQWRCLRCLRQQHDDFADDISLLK

Compound | IC50 [1, 3] [nM] | IC50 ([1]; bound stated, read-out: IC50 value in the FRET BACE enzyme assay) [nM] | IC50 [2, 4] [nM] | IC50 [2, 5] [nM] | IC50 ([2]; Homo sapiens, HEK293, bound stated in text, read-out: IC50 value in the BACE cell-based in-vitro assay) [nM]
Cc1ccccc1-c1ccc2nc(N)c(C[C@@H](C)C(=O)NCc3cccnn3)cc2c1 [Example 81, (R)-3-(2-amino-6-o-tolylquinolin-3-yl)-2-methyl-N-(pyridazin-3-ylmethyl)propanamide] | < 500 | < 50 | 500 to 1000 | – | –
Cc1cccc(C(=O)N2CCCC2)c1-c1ccc2nc(N)c(CC(C)C(=O)NCc3ccccc3)cc2c1 (centres unmarked) [Example 151, 3-(2-amino-6-(2-methyl-6-(pyrrolidine-1-carbonyl)phenyl)quinolin-3-yl)-N-benzyl-2-methylpropanamide] | < 500 | – | < 500 | – | –
3-(3-amino-7-o-tolylnaphthalen-2-yl)-N-(6,7-dihydro-5H-cyclopenta[b]pyridin-7-yl)-2-methylpropanamide [Example 73] | < 500 | – | – | 1000 to 5000 | –
Cc1ccccc1-c1ccc2nc(N)c(C[C@@H](C)C(=O)NC3CCCC(C)(C)C3)cc2c1 (stereo partly drawn) [Example 162, (2R)-3-(2-amino-6-(2-methylphenyl)-3-quinolinyl)-N-(3,3-dimethylcyclohexyl)-2-methylpropanamide] | < 500 | – | < 500 | – | –
Cc1ccccc1-c1ccc2nc(N)c(CCC(=O)N[C@H](C)c3cccnc3)cc2c1 [Example 78, 3-(2-amino-6-o-tolylquinolin-3-yl)-N-((R)-1-(pyridin-3-yl)ethyl)propanamide] | 1000 to 5000 | – | – | > 5000 | –
Cc1cccnc1-c1cc2cc(CC(C)C(=O)NCC3CCOCC3)c(N)nc2cc1F (centres unmarked) [Example 97, 3-(2-amino-7-fluoro-6-(3-methyl-2-pyridinyl)-3-quinolinyl)-2-methyl-N-(tetrahydro-2H-pyran-4-ylmethyl)propanamide] | < 500 | – | 1000 to 5000 | – | –
Cc1ccccc1-c1ccc2nc(N)c(CCC(=O)NC3CCOCC3)cc2c1 [Example 15, 3-(2-amino-6-o-tolylquinolin-3-yl)-N-(tetrahydro-2H-pyran-4-yl)propanamide] | < 500 | – | > 5000 | – | –
Cc1ccccc1-c1ccc2nc(N)c(CC(C)C(=O)NCc3cnn(C)c3)cc2c1 (centres unmarked) [Example 94, 3-(2-amino-6-o-tolylquinolin-3-yl)-2-methyl-N-((1-methyl-1H-pyrazol-4-yl)methyl)propanamide] | < 500 | – | 1000 to 5000 | – | –
COc1ccccc1C(C)NC(=O)CCc1cc2cc(-c3ccccc3C)ccc2nc1N (centres unmarked) [Example 105, 3-(2-amino-6-o-tolylquinolin-3-yl)-N-(1-(2-methoxyphenyl)ethyl)propanamide] | < 500 | – | 1000 to 5000 | – | –
3-(3-amino-7-o-tolylnaphthalen-2-yl)-N-(1-phenylethyl)propanamide [Example 30] | < 500 | – | – | 1000 to 5000 | –
Nc1nc2ccc(-c3ccccc3)cc2cc1CCC(=O)NCC1CCCCC1 [Example 45, 3-(2-amino-6-phenylquinolin-3-yl)-N-(cyclohexylmethyl)propanamide] | 500 to 1000 | – | > 5000 | – | –
Cc1cccnc1-c1ccc2nc(N)c(CC(C)C(=O)NC[C@H]3CCCOC3)cc2c1 (stereo partly drawn) [Example 86, 3-(2-amino-6-(3-methylpyridin-2-yl)quinolin-3-yl)-2-methyl-N-(((R)-tetrahydro-2H-pyran-3-yl)methyl)propanamide] | < 500 | – | < 500 | – | –
CC(C)(C)CCNC(=O)CCc1cc2cc(-c3ccccc3C(=O)N3CCCC3)ccc2nc1N [Example 165, 3-(2-amino-6-(2-(1-pyrrolidinylcarbonyl)phenyl)-3-quinolinyl)-N-(3,3-dimethylbutyl)propanamide] | < 500 | – | 1000 to 5000 | – | –
3-(3-amino-7-o-tolylnaphthalen-2-yl)-N-(2,3-dihydro-1H-inden-1-yl)propanamide [Example 57] | < 500 | – | – | 1000 to 5000 | –
Cc1cccc(C(=O)N2CCCC2)c1-c1ccc2nc(N)c(CC(C)C(=O)NC3CC3)cc2c1 (centres unmarked) [Example 150, 3-(2-amino-6-(2-methyl-6-(pyrrolidine-1-carbonyl)phenyl)quinolin-3-yl)-N-cyclopropyl-2-methylpropanamide] | < 500 | – | < 500 | – | –
COc1ccccc1[C@@H](C)NC(=O)[C@H](C)Cc1cc2cc(-c3ccccc3C)ccc2nc1N [Example 74, (R)-3-(2-amino-6-o-tolylquinolin-3-yl)-N-((R)-1-(2-methoxyphenyl)ethyl)-2-methylpropanamide] | 1000 to 5000 | – | > 5000 | – | –
Cc1ccccc1-c1ccc2nc(N)c(CC(C)C(=O)NC3CCOC4(CCC4)C3)cc2c1 [Example 170, (2R)-3-(2-amino-6-(2-methylphenyl)-3-quinolinyl)-2-methyl-N-(5-oxaspiro[35]non-8-yl)propanamide] | < 500 | – | < 500 | – | –
CC(Cc1cc2cc(C3CC3C)ccc2nc1N)C(=O)NCCC(C)(C)C (centres unmarked) [Example 7, 3-(2-amino-6-(2-methylcyclopropyl)quinolin-3-yl)-N-(3,3-dimethylbutyl)-2-methylpropanamide] | < 500 | – | 1000 to 5000 | – | –
CC(Cc1cc2cc(-c3ccccc3CN(C)C)ccc2nc1N)C(=O)NCC1CCCCC1 (centres unmarked) [Example 108, 3-(2-amino-6-(2-((dimethylamino)methyl)phenyl)quinolin-3-yl)-N-(cyclohexylmethyl)-2-methylpropanamide] | < 500 | – | < 500 | – | < 100
CNC(=O)[C@@H](C)Cc1cc2cc(-c3c(C)cccc3C(=O)N3CCCC3)ccc2nc1N [Example 155, (S) 3-(2-amino-6-(2-methyl-6-(pyrrolidine-1-carbonyl)phenyl)quinolin-3-yl)-N,2-dimethylpropanamide] | 1000 to 5000 | – | 1000 to 5000 | – | –
Cc1cccnc1-c1ccc2nc(N)c(CC(C)C(=O)N[C@H](C)C(F)(F)F)cc2c1 (stereo partly drawn) [Example 114, 3-(2-amino-6-(3-methylpyridin-2-yl)quinolin-3-yl)-2-methyl-N-((R)-1,1,1-trifluoropropan-2-yl)propanamide] | 1000 to 5000 | – | 1000 to 5000 | – | –
Nc1nc2ccc(-c3cccc(F)c3)cc2cc1CCC(=O)NCC1CCCCC1 [Example 43, 3-(2-amino-6-(3-fluorophenyl)quinolin-3-yl)-N-(cyclohexylmethyl)propanamide] | 500 to 1000 | – | 1000 to 5000 | – | –
Cc1ccccc1-c1ccc2nc(N)c(CCC(=O)NCCC3CC3)cc2c1 [Example 115, 3-(2-amino-6-o-tolylquinolin-3-yl)-N-(2-cyclopropylethyl)propanamide] | < 500 | – | 1000 to 5000 | – | –
Nc1nc2ccc(-c3cscn3)cc2cc1CCC(=O)NCC1CCCCC1 [Example 2, 3-(2-amino-6-(thiazol-4-yl)quinolin-3-yl)-N-(cyclohexylmethyl)propanamide] | 1000 to 5000 | – | > 5000 | – | –
